Experimental data taken from US9371295B2, “Compounds for use in the treatment of disorders that are ameliorated by inhibition of HDAC” (IRBM—Science Park S.p.A., priority 2012, dated 2016).
pEC50, pIC50: −log10 of the molar value.

Legend:
K562 cells = experiment: Erythroid differentiation of K562 cells by benzidine staining; format: cell-based, human; settings: optimized concentration, mean ± SD of six experiments
Procedure: The biological activity of the compounds of the present application was evaluated by examining the capacity to modulate the expression of γ-globin genes in the human K562 cell line, which is capable of differentiating in the erythroid manner by expressing genes for γ-globin if treated with modifiers of the biological response that are suitable for the purpose (Bianchi et al, J. Haematol., 113, 4, p. 951-961, 2001). The human K562 cells were cultured in RPMI 1640 medium (Sigma, St Louis, Mo., USA) supplemented with 10% foetal bovine serum (FBS; Analitical de Mori, Milan, Italy), 100 units/mL penicillin and 100 μg/mL streptomycin. Cell growth was determined according to cell number/ml, using a cell counter (Coulter Electronics, Hialeah, Fla., USA). For experiments, K562 cell cultures were initiated at 3×10^4/mL and the chemical inducers at the indicated concentrations added. Following 3-5 days incubation without a medium change erythroid differentiation was determined by staining the cells in a solution containing 0.2% benzidine in 0.5 M glacial acetic acid, 10% H2O2. Benzidine positivity indicates the presence of intracellular Hb.
The erythroid differentiation of K562 cells was investigated following treatment with selected compounds of the invention. The effect on cell proliferation was first determined for all tested molecules by culture of K562 cells in the presence of increasing concentration of the compounds. The cell number per sample was then determined after 3, 4 and 5 days. The IC50 values reported in Table 3 for the antiproliferative effect were calculated from the concentration of the compounds necessary to decrease the cell number to 50% of the values obtained in control untreated K562 cell cultures, after a 5 days culture period. Erythroid differentiation was measured by benzidine staining after 5, 6 and 7 days of cell culture and by quantitative reverse transcriptase polymerase-chain reaction (RT-qPCR) to quantify the expression of γ-globin mRNA. Different concentrations of tested compounds were employed because of their differing antiproliferative effects; accordingly, concentrations were chosen to maximize the erythroid induction effect without extensive reduction of cell viability. In Table 3 the % of benzidine positive cells and the increase in γ-globin mRNA assayed by RT-qPCR after 6 days of culture period are reported.
Table 4 reports induction of erythroid differentiation in K562 cells treated with an optimized concentration of the compound 2 in comparison with known inducers. Compound 2 is able to stimulate an increase of the proportion of benzidine-positive (hemoglobin producing) K562 cells. This is associated with an increase of the expression of γ-globin mRNA.

HDAC in Hela cells = experiment: HDAC Hela Cell Based assay
HDAC1 = molecular target: T1, HDAC1 (Homo sapiens, UniProt Q13547); experiment: HDAC1 assay (Fluor-de-Lys fluorescent deacetylase assay); format: biochemical; settings: read-out: hHDAC IC50
T1 construct: made in house
T1 sequence (Q13547 whole entry): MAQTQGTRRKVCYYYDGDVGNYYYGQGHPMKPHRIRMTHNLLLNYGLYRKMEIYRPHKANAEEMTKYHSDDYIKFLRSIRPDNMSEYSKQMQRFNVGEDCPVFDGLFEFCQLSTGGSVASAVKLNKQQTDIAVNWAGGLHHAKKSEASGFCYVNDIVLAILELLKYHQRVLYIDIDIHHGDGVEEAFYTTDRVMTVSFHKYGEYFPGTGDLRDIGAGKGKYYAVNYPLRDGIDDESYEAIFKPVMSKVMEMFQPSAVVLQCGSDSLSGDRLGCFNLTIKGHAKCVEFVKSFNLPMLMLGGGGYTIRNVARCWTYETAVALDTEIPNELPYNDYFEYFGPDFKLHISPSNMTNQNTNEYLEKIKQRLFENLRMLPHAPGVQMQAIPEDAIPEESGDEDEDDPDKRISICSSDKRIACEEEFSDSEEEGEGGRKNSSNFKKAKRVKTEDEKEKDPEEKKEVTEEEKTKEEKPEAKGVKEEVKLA
Procedure, shortened: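 Serially diluted compounds were pre-incubated with purified FLAG-tagged HDAC1 (1-2 nM final; from transfected HeLa cells) or HeLa nuclear extract, then given the Fluor-de-Lys acetyl-lysine substrate/developer; deacetylation read as fluorescence. Reactions were stopped with TSA (3 uM final).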

[1] = test system: human γ-globin promoter (EGFP reporter) in K562 cells; experiment: HbF activation assay on K562 (EGFP/RFP reporter model system for screening of inducers of fetal hemoglobin); format: cell-based; settings: 60 hours
Procedure, shortened: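 K562 cells stably carrying EGFP under the human γ-globin promoter and far-red FP under the β-globin promoter, with the LCR, were seeded at 1000 cells/well. Cells were exposed to compounds (0.25% DMSO final) for 60 h at 37 °C. Fluorescence was read by plate cytometry, normalized to Hoechst nuclei count, which also indicated proliferation or death.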

SMILES	pIC50 (HDAC in Hela cells)	pIC50 (HDAC1)	pEC50 [1]	Benzidine positive cells (%) (K562 cells)
Nc1ccn([C@@H]2O[C@H](CO)[C@@H](O)[C@@H]2O)c(=O)n1 [Cytosin arabinoside, reference compound]	–	–	–	75 ± 5.4%
Oc1ccc(C=Cc2cc(O)cc(O)c2)cc1 [Resveratrol, reference compound]	–	–	–	70 ± 8.5%
NC(=O)NO [Hydroxyurea, reference compound]	–	–	–	30 ± 7.5%
CCC(=O)CCCCC[C@H](NC(=O)c1cncs1)c1ncc(-c2ccccc2)o1 [Compound 6, (S)-N-(7-oxo-1-(5-phenyloxazol-2-yl)nonyl)thiazole-5-carboxamide]	< 6.00	> 7.00	< 6.00	–
CCC(=O)CCCCC[C@H](NC(=O)C1CN(C)C1)c1ncc(-c2ccc(-c3ccnn3C)cc2)o1 [Compound 54, (S)-1-methyl-N-(1-(5-(4-(1-methyl-1H-pyrazol-5-yl)phenyl)oxazol-2-yl)-7-oxononyl)azetidine-3-carboxamide]	6.00 to 7.00	> 7.00	< 6.00	–
CCCC(=O)O [Butyric acid, reference compound]	–	–	–	32 ± 6.4%
CCC(=O)CCCCC[C@H](NC(=O)Cc1c(C)[nH]c2ccc(OC)cc12)c1ncc(-c2cc3ccccc3nc2OC)o1 [Compound 1, (S)-2-(5-methoxy-2-methyl-1H-indol-3-yl)-N-(1-(5-(2-methoxyquinolin-3-yl)oxazol-2-yl)-7-oxononyl)acetamide]	6.00 to 7.00	> 7.00	< 6.00	–
O=c1ccc2ccc3occc3c2o1 [Angelicin, reference compound]	–	–	–	62 ± 8.5%
CCC(=O)CCCCC[C@H](NC(=O)C1CCCN(C)C1)c1ncc(-c2cc3ccccc3nc2OC)o1 (stereo partly drawn) [Compound 104, N-((S)-1-(5-(2-methoxyquinolin-3-yl)oxazol-2-yl)-7-oxononyl)-1-methylpiperidine-3-carboxamide]	> 7.00	> 7.00	6.00 to 7.00	–
CCC(=O)CCCCC[C@H](NC(=O)CCn1c(CC)nc2ccccc21)c1ncc(-c2ccccc2)o1 [Compound 26, (S)-3-(2-ethyl-1H-benzo[d]imidazol-1-yl)-N-(7-oxo-1-(5-phenyloxazol-2-yl)nonyl)propanamide]	< 6.00	6.00 to 7.00	< 6.00	–
CCC(=O)CCCCC[C@H](NC(=O)C1CCN(C)CC1)c1nnc(-c2cc3ccccc3nc2OC)o1 [Compound 47, (S)-N-(1-(5-(2-methoxyquinolin-3-yl)-1,3,4-oxadiazol-2-yl)-7-oxononyl)-1-methylpiperidine-4-carboxamide]	6.00 to 7.00	> 7.00	6.00 to 7.00	–
N.N.[Cl][Pt][Cl] [Cisplatin, reference compound]	–	–	–	63 ± 8.5%

Second part, led by results:

pIC50 (HDAC in Hela cells)	pIC50 (HDAC1)	pEC50 [1]	SMILES	Benzidine positive cells (%) (K562 cells)
6.00 to 7.00	> 7.00	6.00 to 7.00	CCC(=O)CCCCC[C@H](NC(=O)C1(C)CN(C)C1)c1ncc(-c2cc3ccccc3nc2OC)o1 [Compound 84, (S)-N-(1-(5-(2-methoxyquinolin-3-yl)oxazol-2-yl)-7-oxononyl)-1,3-dimethylazetidine-3-carboxamide]	–
6.00 to 7.00	> 7.00	< 6.00	CCC(=O)CCCCC[C@H](NC(=O)Cn1ccc(C)n1)c1ncc(-c2cc3ccccc3nc2OC)o1 [Compound 78, (S)-N-(1-(5-(2-methoxyquinolin-3-yl)oxazol-2-yl)-7-oxononyl)-2-(3-methyl-1H-pyrazol-1-yl)acetamide]	–
6.00 to 7.00	> 7.00	< 6.00	CCC(=O)CCCCC[C@H](NC(=O)[C@@H]1CC(F)(F)CN1C)c1ncc(-c2cc3ccccc3nc2OC)o1 [Compound 58, (S)-4,4-difluoro-N-((S)-1-(5-(2-methoxyquinolin-3-yl)oxazol-2-yl)-7-oxononyl)-1-methylpyrrolidine-2-carboxamide]	–
6.00 to 7.00	> 7.00	< 6.00	CCC(=O)CCCCC[C@H](NC(=O)c1ccn(C)n1)c1ncc(-c2cc3ccccc3nc2OC)o1 [Compound 98, (S)-N-(1-(5-(2-methoxyquinolin-3-yl)oxazol-2-yl)-7-oxononyl)-1-methyl-1H-pyrazole-3-carboxamide]	–
6.00 to 7.00	> 7.00	< 6.00	CCC(=O)CCCCC[C@H](NC(=O)c1snnc1C)c1ncc(-c2cc3ccccc3nc2OC)o1 [Compound 101, (S)-N-(1-(5-(2-methoxyquinolin-3-yl)oxazol-2-yl)-7-oxononyl)-4-methyl-1,2,3-thiadiazole-5-carboxamide]	–
6.00 to 7.00	> 7.00	< 6.00	CCC(=O)CCCCC[C@H](NC(=O)Cc1nonc1C)c1ncc(-c2cc3ccccc3nc2OC)o1 [Compound 77, (S)-N-(1-(5-(2-methoxyquinolin-3-yl)oxazol-2-yl)-7-oxononyl)-2-(4-methyl-1,2,5-oxadiazol-3-yl)acetamide]	–
6.00 to 7.00	6.00 to 7.00	< 6.00	CCC(=O)CCCCC[C@H](NC(=O)C(=O)N(C)C)c1ncc(-c2cc3ccccc3nc2OC)o1 [Compound 36, (S)-N1-(1-(5-(2-methoxyquinolin-3-yl)oxazol-2-yl)-7-oxononyl)-N2,N2-dimethyloxalamide]	–
6.00 to 7.00	> 7.00	< 6.00	CCC(=O)CCCCC[C@H](NC(=O)c1nnc(C)o1)c1ncc(-c2cc3ccccc3nc2OC)o1 [Compound 90, (S)-N-(1-(5-(2-methoxyquinolin-3-yl)oxazol-2-yl)-7-oxononyl)-5-methyl-1,3,4-oxadiazole-2-carboxamide]	–
6.00 to 7.00	> 7.00	6.00 to 7.00	CCC(=O)CCCCC[C@H](NC(=O)CCn1ccnc1)c1ncc(-c2cc3ccccc3nc2OC)o1 [Compound 75, (S)-3-(1H-imidazol-1-yl)-N-(1-(5-(2-methoxyquinolin-3-yl)oxazol-2-yl)-7-oxononyl)propanamide]	–
6.00 to 7.00	> 7.00	< 6.00	CCC(=O)CCCCC[C@H](NC(=O)C(C)n1cccn1)c1ncc(-c2cc3ccccc3nc2OC)o1 (stereo partly drawn) [Compound 102, N-((S)-1-(5-(2-methoxyquinolin-3-yl)oxazol-2-yl)-7-oxononyl)-2-(1H-pyrazol-1-yl)propanamide]	–
> 7.00	> 7.00	6.00 to 7.00	CCC(=O)CCCCC[C@H](NC(=O)CC1CN(C)C1)c1ncc(-c2cc3ccccc3nc2OC)o1 [Compound 108, (S)-N-(1-(5-(2-methoxyquinolin-3-yl)oxazol-2-yl)-7-oxononyl)-2-(1-methylazetidin-3-yl)acetamide]	–
6.00 to 7.00	> 7.00	< 6.00	CCC(=O)CCCCC[C@H](NC(=O)Cn1ccnn1)c1ncc(-c2cc3ccccc3nc2OC)o1 [Compound 59, (S)-N-(1-(5-(2-methoxyquinolin-3-yl)oxazol-2-yl)-7-oxononyl)-2-(1H-1,2,3-triazol-1-yl)acetamide]	–
